Data reported in patent US20240277899A1, “PRODUCTION METHOD OF MYOCARDIAL CELL LAYER, MYOCARDIAL CELL LAYER, AND USE THEREOF” (FUJIFILM Corporation, priority 2021, published 2024).
Where two headings read alike, the source gives them in different places.

Test system: myocardial cell layer of myocardial cell C (iCell Cardiomyocytes^2, purity 80%)
Assay: Drug screening: electrical signal of spontaneous beating of the myocardial cell layer measured by MEA (QT interval, beat rate, cardiotoxicity)
Settings: for myocardial beat rate on addition of the drug: MEA 5 minutes after adding drug, Day 17; for myocardial beat rate reaction, TW compared with Control: TW layer versus Control layer
Description: iCell (registered trademark) Cardiomyocytes^2 was thawed according to “iCell Cardiomyocytes^2 User's Guide” to prepare myocardial cells C (purity of the myocardial cells 100%). In addition, myocardium-derived fibroblasts (NHCF-V human cardiac fibroblasts, Lonza, CC-2904) were added to the myocardial cells C to prepare myocardial cells with a purity of 25%, 50%, and 75%, respectively. Each of the prepared myocardial cells was dispersed at 1×10^6 cells/cm^2 and scattered on the seeding surface of the cells of the culture container 3 prepared in Example 1 to form a myocardial cell layer. The cells were cultured in the same manner as in Example 2, a beating frequency was measured, and stability of the TW was evaluated.
Using the myocardial cell C (the myocardial cell with a purity of 80%, which was obtained in the same manner as in Example 4) and the above-described culture container 3 (biodegradable fiber material), a myocardial cell layer was formed in the same manner as in Example 4. […] In addition, the beating frequency was measured up to Day 14 (TW). As a control, the beating frequency was measured in the same manner for those (Control) in which the TW was stopped by exchanging the culture medium with a culture medium at 4° C. on Day 2.
A culture container 3 (biodegradable fiber material) was created in the same manner as in Example 10. In addition, a culture container 3 (PC) was created in the same manner as for the culture container 3 (biodegradable fiber material), using polycarbonate (PC) porous membrane (Thermo Fisher Scientific, Inc., Nunc™ Polycarbonate Cell Culture Cell Inserts in Multi-Well Plates 140644) as a scaffold material. A myocardial cell layer was formed in the same manner as in Example 2, using the myocardial cells B, the culture container 3 (biodegradable fiber material), and the culture container 3 (PC). […] After Day 14, the electrical signal of myocardial spontaneous beating was measured by MEA by stopping the TW by exchanging the culture medium with a culture medium at 4° C. Specifically, data of extracellular Field Potentials (FPs) was recorded on a multielectrode array (MEA) system (USB-ME64-System, Multi Channel Systems, Germany).
A culture container 3 (biodegradable fiber material) was created in the same manner as in Example 10. Using the myocardial cell C (the myocardial cell with a purity of 80%, which was obtained in the same manner as in Example 4) and the above-described culture container 3 (biodegradable fiber material), a myocardial cell layer was formed in the same manner as in Example 4. Those in which the generated TW was stably maintained up to Day 14 (TW), and those in which TW was stopped by exchanging the culture medium with a culture medium at 4° C. on Day 2 (Control), that is, a total of two kinds were produced.

SMILES | QT interval extension, TW compared with Control (TW layer (TW maintained up to Day 14) versus Control layer (TW stopped on Day 2), MEA 5 minutes after drug) | myocardial beat rate on addition of the drug | myocardial beat rate reaction, TW compared with Control (MEA 5 minutes after drug) | QT interval as the concentration increased | QT interval extension, TW compared with Control
Cc1cccc(C)c1OCC(C)N (centres unmarked) [mexiletine] | smaller than Control |  |  |  | 
COc1ccc(CCN(C)CCCC(C#N)(c2ccc(OC)c(OC)c2)C(C)C)cc1OC (centres unmarked) [verapamil] |  | increased | more sensitive in reaction to verapamil as compared with Control |  | 
CC(=O)Oc1ccccc1C(=O)O [aspirin] |  |  | almost the same | decreased | almost the same
CC(C)NCC(O)c1ccc(O)c(O)c1 (centres unmarked) [isoproterenol] |  | increased | more sensitive in reaction to isoproterenol as compared with Control |  | 
